Columns and labels:
CYP121A1 [1] = molecular target: T1, CYP121A1 (Mycobacterium tuberculosis, UniProt P9WPP7, I166A/S171C/I180A); format: binding
T1 construct: gene cyp121

CYP121A1 [2] = molecular target: T2, CYP121A1 (Mycobacterium tuberculosis, UniProt P9WPP7, S171C); format: binding
T2 construct: gene cyp121

SMILES: c1c[nH]cn1 [imidazole]
- 19F-NMR titration with absorption (Soret) readout (CYP121A1 [1]): in the I166A_I180A mutant, we observed rapid saturation for both of the NMR and wavelength absorption outputs
- 19F-NMR titration (25-200 mM) with stepwise Soret shift (CYP121A1 [2]): changes in the NMR spectra correlated closely with a stepwise shift in the Soret band of the protein

Reference: publication PMC8571521, “^19F-NMR reveals substrate specificity of CYP121A1 in Mycobacterium tuberculosis” (The Journal of Biological Chemistry, 2021)
